The values below come from patent publication US20160346320A1, “SUBSTANCE FOR INHIBITING TISSUE CALCIFICATION, TISSUE FIBROSATION AND AGE-RELATED DISEASES” (Fresenius Kabi Deutschland GmbH, priority 2013, published 2016).

Entries after “also recorded” stand apart in the source; their conditions may differ.

The subject of experiment [1] is alkaline phosphatase (ALP) mRNA. Type of experiment: cell-based, human.
Experiment [2] is described as follows: growth and body weight of klotho mice. Type of experiment: in vivo. Particulars: for body weight / growth deficit: NH4Cl 0.28 M or acetazolamide 800 mg/l in drinking water.
Experiment [3] is described as follows: blood chemistry: plasma concentrations in klotho mice. It counts as in vivo. Conditions: NH4Cl 0.28 M or acetazolamide 800 mg/l in drinking water.
The subject of experiment [4] is NFAT5. In words: NFAT5 expression in HAoSMCs, quantitative RT-PCR. Type of experiment: cell-based, human. Conditions: NH4Cl 500 μM. How it is done: (§1) The following experimental studies were executed: Primary human aortic smooth muscle cells (HAoSMCs, Invitrogen) were cultivated in Waymouth's MB 752/1 medium and Ham's F12 nutrient mixture (1:1, Gibco, Life Technologies) with the addition of 10% FBS (Gibco, Life Technologies). In all experiments, confluent HAoSMCs, passages 4 to 11, were used. The cells were treated for 24 hours with 2 mM β-glycerophosphate (Sigma-Aldrich) with or without simultaneous addition of 0.5 mM ammonium salts or 100 μM chloroquine diphosphate (Sigma-Aldrich). Quantitative RT-PCR (real time polymerase chain reaction) were carried out, as described previously (Voelkl, J., Alesutan, I., Leibrock, C. B., Quintanilla-Martinez, L., Kuhn, V., Feger, M., Mia, S., Ahmed, M. S., Rosenblatt, K. P., Kuro, O., Lang, F.: Spironolactone ameliorates PIT1-dependent vascular osteoinduction in klotho-hypomorphic mice. J. Clin Invest 2013; February 1; 123(2):812-22). For this, HAoSMCs were washed and total RNA were isolated using Trifast reagent (Peqlab) according to the directions from the manufacture. […] The total RNA were likewise isolated with Trifast reagent (Peqlab) in accordance with the directions from the manufacture. In each case, 2 μg RNA of the human as well as the murine samples were used for the reverse transcription of the RNA with oligo(dT)12-18 primers (Invitrogen) and SuperScripIII Reverse Transcriptase (Invitrogen). Quantitative real-time PCR were carried out with an iCycler iQ™ Real-Time PCR Detection System (Bio-Rad Laboratories) and iQ™ Sybr Green Supermix (Bio-Rad Laboratories) according to the manufacturer's instructions. The following primers were used (5′ orientation): […]
(§2) The specificity of the PCR products was checked by means of melting curve analysis and agarose gel electrophoresis. All PCRs were each carried out twice, and the multiple mRNA quantities were calculated by means of the […] methods with GAPDH as the internal reference.

In another experiment the test system is SOX9. Kind of experiment: SOX9 expression in HAoSMCs, quantitative RT-PCR. Type of experiment: cell-based, human. Conditions: NH4Cl 500 μM. The procedure: as §1, §2
For a further experiment, the system named is TGFβ1 mRNA. Type of experiment: cell-based, human.
Experiment [5] has as its system NFAT5. Kind of experiment: NFAT5 expression in aortas of klotho mice. Conditions: NH4Cl 0.28 M in drinking water. It counts as in vivo.
The subject of the next experiment is Runx2 mRNA. Type of experiment: cell-based, human.
[6] abbreviates: HAoSMCs transfected with NFAT5, 2 mM β-glycerophosphate.
Setting [7] is: HAoSMCs transfected with empty vectors, 2 mM β-glycerophosphate.
[8] abbreviates: HAoSMCs, 2 mM β-glycerophosphate.

Turning to `CCN(CC)CCCC(C)Nc1ccnc2cc(Cl)ccc12` (racemic) [chloroquine, (RS)—N′-(7-chloroquinoline-4-yl)-N,N-diethyl-pentane-1,4-diamine], in experiment [1], the “ALP mRNA expression increase” value is reported as “reduce the expression; also recorded: suppression of the ALP mRNA expression increase”.

Take `CC(=O)Nc1nnc(S(N)(=O)=O)s1` [acetazolamide]: in experiment [2], the body weight result was “could be increased” and the growth deficit result is “could not be fully compensated”. In addition, the “concentration of matrix gla protein (MGP) in plasma” value in experiment [3] was “fully normalize”.

Take `Cl.N` [ammonium chloride, Ammonium chloride]: the “expression of NFAT5” value with NFAT5 [4] (setting [6]) was “remained high”; with NFAT5 [4] (setting [7]) it was “sink back to a normal level”. For the same molecule, in the experiment on NFAT5 [4] (setting [8]), the “transcription level of NFAT5” value is on record as “reduced the expression; also recorded: reverse the increase”. In experiment [2], the body weight result is “nearly entirely neutralize the weight deficiency”. The growth deficit result in experiment [2] is “nearly entirely neutralized”. Besides, the growth result in experiment [2] (wild mice (klotho^+/+), NH4Cl 0.28 M in drinking water) is reported as “no growth stimulation”. Further, the “expression of SOX9” value in the experiment with SOX9 (setting [6]) is “prevents the effect of NH4Cl; also recorded: remained high”; with SOX9 (setting [7]) it was “sink back to a normal level”. The “transcription level of SOX9” value in the experiment on SOX9 (setting [8]) is listed as “reduced the expression”. Moreover, the “TGFβ1 mRNA expression increase” value in the experiment on TGFβ1 mRNA is “inhibit the formation of TGFβ1; also recorded: prevented”. Besides, the “expression of NFAT5 in aortas” value with NFAT5 [5] was “normalization of the transcription level”. For the same molecule, the “ALP mRNA expression increase” value in experiment [1] is “reduce the expression; also recorded: suppression of the expression increase”. Moreover, in the experiment with Runx2 mRNA, the “Runx2 mRNA expression increase” value was “inhibit the expression; also recorded: suppressed”.

For `CC(O)C(=O)O.N` (stereo not shown) [ammonium lactate, Ammonium lactate], the “TGFβ1 mRNA expression increase” value in the experiment with TGFβ1 mRNA is recorded as “inhibit the formation of TGFβ1; also recorded: lessened”.

With `N.N.O=S(=O)(O)O` [ammonium sulfate, Ammonium sulfate], the “TGFβ1 mRNA expression increase” value in the experiment on TGFβ1 mRNA is recorded as “inhibit the formation of TGFβ1; also recorded: lessened”. In experiment [1], the “ALP mRNA expression increase” value is recorded as “reduce the expression; also recorded: suppression of the expression increase”. Also, the “Runx2 mRNA expression increase” value with Runx2 mRNA is given as “inhibit the expression; also recorded: suppressed”.

Consider Ammonium citrate, for which, in the experiment on TGFβ1 mRNA, the “TGFβ1 mRNA expression increase” value is on record as “inhibit the formation of TGFβ1; also recorded: lessened”.
